Measurements as given in paper PMC10933344, “A lncRNA Dleu2-encoded peptide relieves autoimmunity by facilitating Smad3-mediated Treg induction” (EMBO Reports, 2024).

Key:
[1] = system: TGF-β/Smad signaling in CD4+ T cells; assay: qPCR analysis of TGF-β/Smad signaling downstream genes; type: cell-based, mouse; conditions: 20 μM 17aa, 24 h
Experimental: Figure 4 Dleu2-17aa modulates TGF-β/Smad signaling to promote Foxp3 transcription. (A) qPCR analysis of TGF-β/Smad signaling downstream genes in CD4^+ T cells treated with Dleu2-17aa or scrPEP for 24 h and challenged with TGF-β to activate the signaling pathway (n = 3). (B) NIH/3T3 cells were transfected with a Foxp3 CNS1-luciferase reporter plasmid and a Smad3 expression vector. Subsequently, the cells were treated with either Dleu2-17aa or scrPEP. Luciferase activity fold induction was quantified (n = 3). (C) Foxp3 CNS1 region enrichment by Smad3 treated with or without Dleu2-17aa for 24 h in CD4^+ T cells was assessed by ChIP-qPCR (n = 3). (D) EMSA was performed in NIH/3T3 cell nuclear lysates using a 10 μM biotin-labeled Foxp3 probe and treated with Dleu2-17aa or scrPEP (3, 10, 30 μM). There were band shifts to a higher molecular weight and an increase in band intensity by Dleu2-17aa treatment. Data information: n indicates biological replicate. Error bars are mean ± SEM; **P < 0.01, and ***P < 0.001. Statistical analysis was by two-tailed Student’s t-test for (A–C). Source data are available online for this figure.
Total RNA from cells or tissues was extracted using TRIzol reagent (Invitrogen) and then quantified. 1 μg of total RNA was reverse transcribed into cDNA with HiScript II Q RT SuperMix for qPCR (+gDNA Wiper) (Vazyme, China, R223-01). The cDNA samples were run in triplicate at 200 ng/well. Quantitative real-time PCR (qPCR) was performed using ChamQ Universal SYBR qPCR Master Mix (Vazyme, China) on an Applied Biosystems 7500 Fast Real-Time PCR System or a ViiA 7 Real-Time PCR System (Applied Biosystems). All gene expression results were normalized to the expression of the housekeeping gene GAPDH. Primer sequences are listed as follows: Dleu2 forward, 5′-[…]-3 and reverse, 5′-[…]-3; Foxp3 forward, 5′-CCCATCCCCAGGAGTCTTG-3′ and reverse, 5′-[…]-3′; Ctla2a forward, 5′-[…]-3′ and reverse, 5′-[…]-3′; Ccr8 forward, 5′-[…]-3′ and reverse, 5′-[…]-3′; Tgf-β forward: 5′-[…]-3′ and reverse, 5′-[…]-3′; Ctla4 forward, 5′-[…]-3′ and reverse, 5′-[…]-3′; Gapdh forward, 5′-[…]-3′ and reverse, 5′-GGGGTCGTTGATGGCAAC-3′.

[2] = system: Smad3 binding to Foxp3 CNS1 region; assay: EMSA, Foxp3 CNS1 probe, NIH/3T3 nuclear lysates; conditions: 3, 10, 30 μM; NIH/3T3 nuclear extracts
Experimental: EMSA was performed using the LightShift Chemiluminescent EMSA kit (Thermo Fisher Scientific, #20148). Briefly, Nuclear extracts of NIH/3T3 cells were prepared using theNE-PER Nuclear and Cytoplasmic Extraction Kit (Thermo Fisher Scientific, #78835). Complementary DNA oligonucleotide Foxp3 CNS1 region probes were 5′-[…]-3′ and 5′-[…]-3′, AP-1 probes were 5′-[…]-3′ and 5′-[…]-3′, PAI-1 probes were 5′-[…]-3′ and 5′-[…]-3′. Probes were end-labeled with biotin and annealed. The reaction mix consists of labeled oligonucleotides, 10 µg of the nuclear extracts, and 3, 10, 30 μM Dleu2-17aa or scrPEP. The binding reaction was incubated at room temperature for 30 min, followed by loading onto a 6% native DNA polyacrylamide gel. The gel was prerun and run with […] Tris-Borate-EDTA and processed according to the manufacturer’s instructions.

[3] = system: CD4+ T cells in CNS of EAE mice; assay: Flow cytometry of CNS T cells of treated EAE mice; type: in vivo, mouse; conditions: 100 μg i.v., replicate 4

**Q.** With “ARGPARRMRGGRRRRLR [scrPEP, scrambled control peptide of Dleu2-17aa]” as the sequence, how does the “Relative mRNA expression, Ccr8” value ([1]; TGF-β, replicate 1) read?
**A.** 1.77

**Q.** And the “Relative mRNA expression, Clta4” value ([1]; TGF-β, replicate 1)?
**A.** 4.488

**Q.** And the “Relative mRNA expression, Ctla2a” value ([1]; TGF-β, replicate 1)?
**A.** 7.981

**Q.** What about the “Relative mRNA expression, Foxp3” value ([1]; TGF-β, replicate 1) of the same sequence?
**A.** 19.2862

**Q.** What about the “Relative mRNA expression, Tgf-β” value ([1]; TGF-β, replicate 1) of the same sequence?
**A.** 0.9918

**Q.** What about the “Relative mRNA expression, Ccr8” value ([1]; TGF-β, replicate 2) of the same sequence?
**A.** 1.871

**Q.** And the “Relative mRNA expression, Clta4” value ([1]; TGF-β, replicate 2)?
**A.** 3.767

**Q.** And the “Relative mRNA expression, Ctla2a” value ([1]; TGF-β, replicate 2)?
**A.** 6.697

**Q.** What about the “Relative mRNA expression, Foxp3” value ([1]; TGF-β, replicate 2) of the same sequence?
**A.** 27.373

**Q.** What about the “Relative mRNA expression, Tgf-β” value ([1]; TGF-β, replicate 2) of the same sequence?
**A.** 0.9024

**Q.** What about the “Relative mRNA expression, Ccr8” value ([1]; TGF-β, replicate 3) of the same sequence?
**A.** 1.768

**Q.** And the “Relative mRNA expression, Clta4” value ([1]; TGF-β, replicate 3)?
**A.** 4.326

**Q.** And the “Relative mRNA expression, Ctla2a” value ([1]; TGF-β, replicate 3)?
**A.** 4.254

**Q.** What about the “Relative mRNA expression, Foxp3” value ([1]; TGF-β, replicate 3) of the same sequence?
**A.** 26.607

**Q.** And the “Relative mRNA expression, Tgf-β” value ([1]; TGF-β, replicate 3)?
**A.** 1.365

**Q.** What about the “Relative mRNA expression, Ccr8” value ([1]; no TGF-β, replicate 1) of the same sequence?
**A.** 1

**Q.** And the “Relative mRNA expression, Clta4” value ([1]; no TGF-β, replicate 1)?
**A.** 1

**Q.** And the “Relative mRNA expression, Ctla2a” value ([1]; no TGF-β, replicate 1)?
**A.** 1

**Q.** And the “Relative mRNA expression, Foxp3” value ([1]; no TGF-β, replicate 1)?
**A.** 1

**Q.** And the “Relative mRNA expression, Tgf-β” value ([1]; no TGF-β, replicate 1)?
**A.** 1

**Q.** What about the “Relative mRNA expression, Ccr8” value ([1]; no TGF-β, replicate 2) of the same sequence?
**A.** 0.871

**Q.** And the “Relative mRNA expression, Clta4” value ([1]; no TGF-β, replicate 2)?
**A.** 0.794

**Q.** What about the “Relative mRNA expression, Ctla2a” value ([1]; no TGF-β, replicate 2) of the same sequence?
**A.** 0.868

**Q.** What about the “Relative mRNA expression, Foxp3” value ([1]; no TGF-β, replicate 2) of the same sequence?
**A.** 1

**Q.** And the “Relative mRNA expression, Tgf-β” value ([1]; no TGF-β, replicate 2)?
**A.** 0.7198

**Q.** And the “Relative mRNA expression, Ccr8” value ([1]; no TGF-β, replicate 3)?
**A.** 1

**Q.** And the “Relative mRNA expression, Clta4” value ([1]; no TGF-β, replicate 3)?
**A.** 0.856

**Q.** What about the “Relative mRNA expression, Ctla2a” value ([1]; no TGF-β, replicate 3) of the same sequence?
**A.** 1

**Q.** What about the “Relative mRNA expression, Foxp3” value ([1]; no TGF-β, replicate 3) of the same sequence?
**A.** 0.967

**Q.** And the “Relative mRNA expression, Tgf-β” value ([1]; no TGF-β, replicate 3)?
**A.** 0.8563

**Q.** And the “Smad3 binding to the CNS1 region of Foxp3 (EMSA)” value [2]?
**A.** did not

**Q.** And the “CD4+ / Live Cells(%)” value [3]?
**A.** 10.2%

**Q.** And the “Foxp3+/ CD4+ Cells (%)” value [3]?
**A.** 10.5%

**Q.** And the “IFN-γ+/ CD4+ Cells(%)” value [3]?
**A.** 22.6%
